The test system of data set [1] is HPV16-positive cells. Briefly: Cytotoxicity assay (VITAL FR / live-cell imaging-based) with peptide-specific CD8+ T cells. Also noted: species or system human; key: +: cytotox: Ability of peptide-specific T cells to kill HPV16-positive cells.; +*: *highlights data from published resources.; *highlights data from published resources. As to conditions: HLA restriction A02. The method, then:
The flow cytometry based VITAL FR cytotoxicity assay was used as published by Stanke et al. (Stanke et al., 2010) to assess whether peptide-specific T cells are able to specifically kill HPV-transformed target cells. Briefly, two HLA-A2+ cell lines, a HPV16-negative (HPV16−) control cell line (C33A) and a HPV16-positive (HPV16+) target cell line (CaSki) were fluorescently labeled with either FarRed or CFSE and were co-incubated with peptide-specific CD8+ T cells as effector cells. After 48 h co-incubation, the fluorescently labeled cells were analyzed by flow cytometry to determine the surviving cells and calculate the specific cytolytic function of the effector cells by the ratio of target and control cells.
CaSki and C33A cells were fluorescently labeled with CFSE and FarRed, respectively. Cells of both cell lines were harvested and resuspended in plain RPMI medium at a concentration of 1×10^6 cells/mL. For cell labeling, 5 μM CSFE were added to CaSki cells and 0.25 μM FarRed were added to C33A cells. The cells were incubated at 37° C. and the reaction was stopped after 10 min by addition of 50 mL RPMI with 10% FBS. The cells were centrifuged at 300×g for 5 min, the supernatant was discarded and the cells were resuspended in their cell culture medium. The labeled cells were seeded in T25 cell culture flasks with 1-2×10^6 cells/flask.
On the next day, the labeled CaSki and C33A as well as the epitope-specific semi-long-term T cell lines (described in 1.6) were harvested. CD8+ T cells were isolated from the epitope-specific semi-long-term T cell lines using the MACS CD8+ T cell isolation kit (Miltenyi Biotec) according to the manufacturer's protocol for LS columns. The CD8+ T cells were resuspended in T cell medium and added to wells of a F-bottom 96-well plate in serial dilutions to achieve triplicates of 6×10^4, 3×10^4, 1.5×10^4, 0.75×10^4 and 0.375×10^4 cells per well. The CaSki and C33A cells were mixed 1:1 in T cell medium and 3×10^3 cells were added to each well containing T cells. Thereby effector:target (E:T) ratios of […] were achieved. Additionally, triplicates of mixed target cells without T cells were seeded, which is referred to as E:T 0. After 48 h incubation at 37° C., 5% C02, the cells were harvested and analyzed at a BD FACS Canto™ II analyzer using the BD FACS Diva Software Version 6. The obtained data were analyzed with the FlowJo software Version 10 by applying the same gating strategy to all samples. Subsequently, the equations (1) and (2) given below were applied in Excel (Microsoft Office 2016) to calculate specific killing.
Semi long-term T cell lines were set up to obtain high numbers of T cells, which are required for the analysis of epitope specific cytotoxic T cell responses in VITAL FR cytotoxicity assays. Autologous DCs were generated from PBMCs as described in 1.7 and loaded with the desired HPV16 peptide. PBMCs of the same donor were thawed and resuspended in T cell medium supplemented with rhIL-7 (10 ng/mL) and rhIL-15 (20 ng/mL). 1×10^7 PBMCs/well were seeded to a 24-well plate in a total volume of 1 mL/well. Peptide-loaded DCs were added in a ratio of 50:1 (PBMCs:DCs) in 1 mL rhIL-7 (10 ng/mL) and rhIL-15 (20 ng/mL) supplemented T cell medium to achieve a final volume of 2 mL. The cell cultures were fed with rhIL-2 (final concentration: 40 U/mL) every other day. If the medium turned yellow the feeding was combined with a half medium change with 1 mL fresh IL-2 supplemented T cell medium. After eight days, the peptide stimulation with peptide-loaded DCs was repeated and cultivation was continued. On day 15, the T cell lines were harvested and used for CD8+ T cell isolation and cytotoxicity assays.
In addition to the VITAL FR assay described herein above, a newly established live-cell imaging-based cytotoxicity assay was applied. […]

Data set [2] relates to short-term antigen-specific T cell lines generated from PBMCs. The experiment in a line: Interferon-γ ELISpot assay on short-term antigen-specific T cell lines. Type of data set: cell-based, human.
Data set [3] relates to peptide-specific T cell cultures. Briefly: T cell phenotyping and intracellular cytokine staining (IFN-gamma, TNF-alpha). Type of data set: cell-based, human. On the set-up: key: +: cytokine: Immunogenicity of the peptide shown by intracellular cytokine staining (IFN-gamma, TNF-alpha); +*: *highlights data from published resources.; *highlights data from published resources. The method, then:
To characterize and quantify the responsive cells upon peptide stimulation, the peptide-specific T cell cultures with positive ELISpot results were further analyzed with T cell phenotyping and intracellular cytokine staining (ICS) assessed by flow cytometry.
The cells of the respective continued short-term T cell culture as well as the DMSO-stimulated and an unresponsive T cell line were harvested into 2 mL reaction tubes and centrifuged at 400×g for 10 min. The supernatant was discarded and the pellet of the unresponsive T cell line was resuspended in 100 μL ELISpot medium and used as unstimulated and unstained control. The pellets of the responsive and the DMSO-stimulated T cell lines were resuspended in 200 μL ELISpot medium and split equally into two wells of a V-bottom 96-well plate. One well of the responsive T cell lines was re-stimulated with 10 μg/mL of its specific peptide while the other well was mock stimulated with 0.1% (v/v) DMSO. As positive control, one well of the DMSO-stimulated T cell line was activated by treatment with 20 ng/ml Phorbol 12-myristate 13-acetate and 1 μM lonomycin. Then, 1:10 diluted GolgiStop (containing monensin) and 1:15 diluted GolgiPlug (containing brefeldin A) were added to all wells to inhibit intracellular transport processes. Monensin inhibits the trans-Golgi transport, while brefeldin A inhibits transport between the ER and the Golgi (Chardin and McCormick, 1999; Mollenhauer et al., 1990). The stimulated cells were incubated for 5 h at standard culture conditions.
After incubation, the cells were resuspended, centrifuged at 400×g for 5 min and the supernatant was discarded. Then, the cells were resuspended in 50 μL cold staining buffer (unstained) or 50 μL cold staining buffer containing the phenotyping antibodies against CD3, CD4, CD8 and the LIVE/DEAD™ Fixable Near-IR Dead Cell Stain (unstimulated and stimulated) and incubated at 4° C. for 30 min. After the surface staining, the cells were washed twice with 200 μL staining buffer and centrifugation at 1400 rpm, followed by fixation with 1% paraformaldehyde (PFA) solution for 15 min at 4° C. All following centrifugation steps were carried out at 1400 rpm for 5 min. After fixation, the cells were again washed twice with 200 μL cold staining buffer and were then resuspended in 100 μL 1× perm/wash buffer diluted in PBS (provided is 10×) for 15 min at 4° C. for cell membrane permeabilization. Subsequently, the plate was centrifuged and the supernatant was discarded. The cells were resuspended in 50 μL perm/wash buffer diluted in PBS (unstained) or 50 μL perm/wash buffer containing the intracellular cytokine antibodies against IFNγ, TNFα and granzyme B (unstimulated and stimulated) for 30 min at 4° C. After intracellular cytokine staining, the cells were washed twice with 200 μL 1× perm/wash buffer. Then 100 μL fix/perm solution (provided in the BD Cytofix/Cytoperm kit) were added per well. After 20 min of incubation at 4° C., the cells of each well were washed twice with 200 μL 1× perm/wash buffer before being resuspended in 100 μL staining buffer and stored at 4° C. overnight.
OneComp eBeads™ (eBeads) and ArC™ Amine Reactive Compensation beads (ArC beads) were stained as compensation controls. For each antibody, 50 μL of the eBeads suspension were stained with the same dilution as used for staining the cells. The ArC beads were stained with 1 μL LIVE/DEAD™ Fixable Near-IR Dead Cell Stain stock solution in 50 μL staining buffer. The beads were incubated at 4° C. for 30 min and were then washed two times with 1 mL staining buffer and centrifugation at 400×g. Finally, the stained beads were resuspended in 400 μL staining buffer, one drop of ArC™ negative beads was added to the labelled ArC beads, and all beads were stored at 4° C. overnight.
On the next day, the samples and the single stained compensation controls were acquired at a BD FACS Canto™ II analyzer using the BD FACS Diva Software Version 6. […]

Where a SMILES comes first, the peptide text is derived from it.

Consider `CSCC[C@H](NC(=O)[C@@H](N)Cc1ccc(O)cc1)C(=O)N[C@@H](CC(C)C)C(=O)N[C@@H](CC(=O)O)C(=O)N[C@@H](CC(C)C)C(=O)N[C@@H](CCC(N)=O)C(=O)N1CCC[C@H]1C(=O)N[C@@H](CCC(=O)O)C(=O)O` [compound 32] (H-YMLDLQPE-OH), for which, in data set [1], the “cytotox: Ability of peptide-specific T cells to kill HPV16-positive cells” value (from here on “cytotox: Ability”) is recorded as “+”.

In the case of `CSCC[C@H](N)C(=O)N[C@@H](CC(C)C)C(=O)N[C@@H](CC(=O)O)C(=O)N[C@@H](CC(C)C)C(=O)N[C@@H](CCC(N)=O)C(=O)N1CCC[C@H]1C(=O)N[C@@H](CCC(=O)O)C(=O)N[C@H](C(=O)O)[C@@H](C)O` [compound 16] (H-MLDLQPET-OH), the “cytotox: Ability” value in data set [1] is on record as “+”.

Take `CC(C)C[C@H](NC(=O)[C@@H](N)CCCNC(=N)N)C(=O)N[C@@H](CS)C(=O)N[C@H](C(=O)N[C@@H](CCC(N)=O)C(=O)N[C@@H](CO)C(=O)N[C@H](C(=O)N[C@@H](Cc1c[nH]cn1)C(=O)N[C@H](C(=O)O)C(C)C)[C@@H](C)O)C(C)C` [compound 17] (H-RLCVQSTHV-OH): the “cytotox: Ability” value in data set [1] was “+”.

For the molecule `CSCC[C@H](NC(=O)[C@@H](N)Cc1ccc(O)cc1)C(=O)N[C@@H](CC(C)C)C(=O)N[C@@H](CC(=O)O)C(=O)N[C@@H](CC(C)C)C(=O)N[C@@H](CCC(N)=O)C(=O)N1CCC[C@H]1C(=O)N[C@@H](CCC(=O)O)C(=O)N[C@H](C(=O)N[C@H](C(=O)N[C@@H](CC(=O)O)C(=O)O)[C@@H](C)O)[C@@H](C)O` [compound 15], the “cytotox: Ability” value in data set [1] is “+”.

With “66 (GIVCPICSQK; Human papillomavirus 16) [compound 66]”, the “ELISpot: Immungenicity of the peptide shown by IFN-gamma ELISPOT analysis” value (“ELISpot: Immungenicity” for short) in data set [2] (HLA restriction A03) was “+”. Moreover, the “cytokine: Immunogenicity of the peptide shown by intracellular cytokine staining (IFN-gamma, TNF-alpha)” value (“cytokine: Immunogenicity” for short) in data set [3] (HLA restriction A03) is “+”.

On to “65 (VCDKCLKFYSK; Human papillomavirus 16) [compound 65]”, for which the “ELISpot: Immungenicity” value in data set [2] (HLA restriction A11) was “+”. Also, in data set [3] (HLA restriction A11), the “cytokine: Immunogenicity” value was “+”.

“115 (FAFRDLCIVY; Human papillomavirus 16) [compound 115]”: the “ELISpot: Immungenicity” value in data set [2] (HLA restriction B15) is on record as “+”. Further, in data set [3] (HLA restriction B15), the “cytokine: Immunogenicity” value is given as “+”.

In the case of “137 (RHYCYSLY; Human papillomavirus 16) [compound 137]”, the “ELISpot: Immungenicity” value in data set [2] (HLA restriction A03) is given as “+”. Also, the “cytokine: Immunogenicity” value in data set [3] (HLA restriction A03) is listed as “+”.

For the molecule “61 (IVYRDGNPY; Human papillomavirus 16) [compound 61]”, the “ELISpot: Immungenicity” value in data set [2] (HLA restriction A03) and in data set [2] (HLA restriction A11) was “+” throughout. Also, the “cytokine: Immunogenicity” value in data set [3] (HLA restriction A03) and in data set [3] (HLA restriction A11) was “+” throughout.

Take “62 (NPYAVCDKCLK; Human papillomavirus 16) [compound 62]”: the “ELISpot: Immungenicity” value in data set [2] (HLA restriction A11) was “+”. Also, in data set [3] (HLA restriction A11), the “cytokine: Immunogenicity” value is listed as “+”.

Regarding “5 (EYRYYCYSLY; Human papillomavirus 16) [compound 5]”, the “ELISpot: Immungenicity” value in data set [2] (HLA restriction A01) is “+”. Moreover, the “cytokine: Immunogenicity” value in data set [3] (HLA restriction A01) is given as “+”.

“24 (DLLMGTLGIVC; Human papillomavirus 16) [compound 24]”: the “ELISpot: Immungenicity” value in data set [2] (HLA restriction A02) is listed as “+”. For the same molecule, the “cytokine: Immunogenicity” value in data set [3] (HLA restriction A02) is given as “+”.

As to “63 (AVCDKCLKFY; Human papillomavirus 16) [compound 63]”, the “ELISpot: Immungenicity” value in data set [2] (HLA restriction A03) and in data set [2] (HLA restriction B15) was “+” in each case. Further, the “cytokine: Immunogenicity” value in data set [3] (HLA restriction A03), in data set [3] (HLA restriction A11) and in data set [3] (HLA restriction B15) was “+” each time.

Consider “74 (DLLIRCINCQK; Human papillomavirus 16) [compound 74]”, for which the “ELISpot: Immungenicity” value in data set [2] (HLA restriction A11) is given as “+”. For the same molecule, in data set [3] (HLA restriction A11), the “cytokine: Immunogenicity” value is reported as “+”.

Consider “87 (PDRAHYNIVTF; Human papillomavirus 16) [compound 87]”, for which the “ELISpot: Immungenicity” value in data set [2] (HLA restriction A24) is given as “+”. Moreover, the “cytokine: Immunogenicity” value in data set [3] (HLA restriction A24) is on record as “+”.

Turning to “116 (LCIVYRDGNPY; Human papillomavirus 16) [compound 116]”, the “ELISpot: Immungenicity” value in data set [2] (HLA restriction B15) is reported as “+”. The “cytokine: Immunogenicity” value in data set [3] (HLA restriction B15) is listed as “+”.

The record behind these values is patent US20260240976A1, “T[…] VACCINES BASED ON VALIDATED TARGET EPITOPES” (Deutsches Krebsforschungszentrum Stiftung des öffentlichen …, priority 2023, published 2026).
